For series [1], the target named is T1, humanized mhT1R3 (Homo sapiens, UniProt Q7RTX0, A109T/A120V/A176D/A197V/A198V/A228S/A231N/A248T/A280V/A282S/A302S/A412V/A417V/A46T/A537T/C375D/D124S/D249S/D250G/D364H/D419E/D470T/D491G/D88A/DEL352-352/DEL488-489/E172D/E199T/E203N/E217D/E356N/E45S/E481Q/E505D/E525K/E545Q/F540P/F555L/G168S/G205S/G311T/G314N/G355L/G360D/G414H/G438R/G439D/G463S/G50T/G542N/H261R/H278R/H281Y/H332P/I485M/I536F/INS376MLQNLSSG/K32Q/K339E/K422L/K494V/K86G/L173R/L245Q/L272V/L29F/L354S/L385Q/L433M/L458M/L483S/L71F/L74M/M151L/M315I/M318V/M31A/N285S/N386L/N532H/N68L/P112S/P246H/P335S/P416H/P420H/P441T/P60I/Q221E/Q257L/Q317R/Q330L/Q336H/Q359L/Q372R/Q418S/Q504K/Q531K/R123Q/R247D/R252Q/R291G/R30K/R357A/R443Q/R467V/R473T/R479Q/R482Q/R486Y/R498Q/R52N/R550K/R553A/R556P/R560K/R56Q/S251Q/S267K/S289H/S290H/S392A/S446A/S447E/S464P/S477T/S490P/S53Q/S559P/S58N/S67P/T195Q/T346A/T377L/T390I/T434S/T480L/T63N/V152I/V277A/V366M/V36I/V381L/V393T/V437A/V465T/V61P/W72L).
T1 construct: the extracellular domain is of mouse origin and the transmembrane and intracellular domains of human origin; mouse T1R3 extracellular domain (fusion partner replacing the human extracellular domain); expressed in transfected cells; host or cells: transgenic mice (Line 7, 9, 7c) on T1R3-null background; transgene under 13 kb T1R3 promoter, followed by IRES-eGFP
T1 sequence (Q7RTX0 with tags, fused parts or gaps L29F/R30K/M31A/K32Q/V36I/E45S/A46T/G50T/R52N/S53Q/R56Q/S58N/P60I/V61P/T63N/S67P/N68L/L71F/W72L/L74M/K86G/D88A/A109T/P112S/A120V/R123Q/D124S/M151L/V152I/G168S/E172D/L173R/A176D/T195Q/A197V/A198V/E199T/E203N/G205S/E217D/Q221E/A228S/A231N/L245Q/P246H/R247D/A248T/D249S/D250G/S251Q/R252Q/Q257L/H261R/S267K/L272V/V277A/H278R/A280V/H281Y/A282S/N285S/S289H/S290H/R291G/A302S/G311T/G314N/M315I/Q317R/M318V/Q330L/H332P/P335S/Q336H/K339E/T346A/DEL352-352/L354S/G355L/E356N/R357A/Q359L/G360D/D364H/V366M/Q372R/C375D/INS376MLQNLSSG/T377L/V381L/L385Q/N386L/T390I/S392A/V393T/A412V/G414H/P416H/A417V/Q418S/D419E/P420H/K422L/L433M/T434S/V437A/G438R/G439D/P441T/R443Q/S446A/S447E/L458M/G463S/S464P/V465T/R467V/D470T/R473T/S477T/R479Q/T480L/E481Q/R482Q/L483S/I485M/R486Y/DEL488-489/S490P/D491G/K494V/R498Q/Q504K/E505D/E525K/Q531K/N532H/I536F/A537T/F540P/G542N/E545Q/R550K/R553A/F555L/R556P/S559P/R560K limits assumed): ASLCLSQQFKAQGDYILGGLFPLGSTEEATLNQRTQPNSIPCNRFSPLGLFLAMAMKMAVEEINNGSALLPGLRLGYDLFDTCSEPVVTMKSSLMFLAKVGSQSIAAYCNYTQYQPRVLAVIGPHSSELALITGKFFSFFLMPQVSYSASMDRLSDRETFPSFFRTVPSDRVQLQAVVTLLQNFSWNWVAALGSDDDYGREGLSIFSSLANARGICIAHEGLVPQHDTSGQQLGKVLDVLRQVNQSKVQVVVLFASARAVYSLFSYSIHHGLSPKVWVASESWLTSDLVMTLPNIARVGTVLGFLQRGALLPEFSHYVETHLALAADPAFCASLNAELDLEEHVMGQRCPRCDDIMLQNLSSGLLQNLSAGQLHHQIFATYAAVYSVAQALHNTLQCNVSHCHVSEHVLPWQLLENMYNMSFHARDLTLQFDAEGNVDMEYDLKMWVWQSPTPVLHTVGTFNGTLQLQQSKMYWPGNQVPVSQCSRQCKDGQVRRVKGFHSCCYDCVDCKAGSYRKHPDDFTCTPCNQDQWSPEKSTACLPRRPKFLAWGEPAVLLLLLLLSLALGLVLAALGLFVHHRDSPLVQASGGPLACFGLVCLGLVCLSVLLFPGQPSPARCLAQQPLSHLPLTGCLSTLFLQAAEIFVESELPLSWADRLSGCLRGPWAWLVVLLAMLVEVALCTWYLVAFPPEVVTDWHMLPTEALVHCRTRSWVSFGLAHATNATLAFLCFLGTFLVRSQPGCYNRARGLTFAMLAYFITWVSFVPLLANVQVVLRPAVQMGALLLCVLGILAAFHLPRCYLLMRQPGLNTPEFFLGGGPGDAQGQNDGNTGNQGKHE
T1 sequence (Q925I4 20-843 partner): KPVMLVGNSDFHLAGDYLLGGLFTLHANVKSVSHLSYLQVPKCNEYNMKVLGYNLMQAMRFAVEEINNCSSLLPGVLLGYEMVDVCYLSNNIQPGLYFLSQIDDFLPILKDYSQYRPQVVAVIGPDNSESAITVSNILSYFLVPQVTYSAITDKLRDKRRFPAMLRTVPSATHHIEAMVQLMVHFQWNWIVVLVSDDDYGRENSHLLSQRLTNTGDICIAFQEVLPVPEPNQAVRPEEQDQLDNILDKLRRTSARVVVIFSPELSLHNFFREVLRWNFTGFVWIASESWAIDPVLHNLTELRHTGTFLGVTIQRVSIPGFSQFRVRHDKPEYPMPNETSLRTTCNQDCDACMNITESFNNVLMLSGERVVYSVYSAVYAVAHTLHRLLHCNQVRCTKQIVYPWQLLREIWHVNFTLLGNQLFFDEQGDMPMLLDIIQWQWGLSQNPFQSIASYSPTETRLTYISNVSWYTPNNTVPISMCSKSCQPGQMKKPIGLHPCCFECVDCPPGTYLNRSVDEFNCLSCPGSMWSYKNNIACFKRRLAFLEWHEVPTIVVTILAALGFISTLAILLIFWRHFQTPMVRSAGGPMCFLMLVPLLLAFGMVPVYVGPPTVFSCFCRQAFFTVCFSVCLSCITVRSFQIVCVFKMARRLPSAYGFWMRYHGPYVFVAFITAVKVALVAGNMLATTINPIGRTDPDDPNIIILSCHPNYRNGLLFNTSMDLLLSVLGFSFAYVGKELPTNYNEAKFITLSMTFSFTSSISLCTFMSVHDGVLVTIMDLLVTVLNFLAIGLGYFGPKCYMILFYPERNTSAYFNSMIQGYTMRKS
Kind of series: sweet taste preference of transgenic mice expressing humanized T1R3. Type of series: in vivo, mouse. As for the experimental part: We used the chimeric mhT1R3 receptor to produce conventional transgenic animals. The DNA construct was injected into a genetically engineered mouse line that lacks endogenous T1R3 (T1R3KO or T1R3-null). […] We call these mice Line7.
For further crosses, we used the line 7 that has fewer copies of the transgene.
Such compounds may be produced normally in organs (e.g. in testis) or chemically synthesized.

Series [2] deals with T2, human T1R3 receptor (Homo sapiens, UniProt Q7RTX0).
T2 construct: expressed in transfected cells
T2 sequence (Q7RTX0 21-852): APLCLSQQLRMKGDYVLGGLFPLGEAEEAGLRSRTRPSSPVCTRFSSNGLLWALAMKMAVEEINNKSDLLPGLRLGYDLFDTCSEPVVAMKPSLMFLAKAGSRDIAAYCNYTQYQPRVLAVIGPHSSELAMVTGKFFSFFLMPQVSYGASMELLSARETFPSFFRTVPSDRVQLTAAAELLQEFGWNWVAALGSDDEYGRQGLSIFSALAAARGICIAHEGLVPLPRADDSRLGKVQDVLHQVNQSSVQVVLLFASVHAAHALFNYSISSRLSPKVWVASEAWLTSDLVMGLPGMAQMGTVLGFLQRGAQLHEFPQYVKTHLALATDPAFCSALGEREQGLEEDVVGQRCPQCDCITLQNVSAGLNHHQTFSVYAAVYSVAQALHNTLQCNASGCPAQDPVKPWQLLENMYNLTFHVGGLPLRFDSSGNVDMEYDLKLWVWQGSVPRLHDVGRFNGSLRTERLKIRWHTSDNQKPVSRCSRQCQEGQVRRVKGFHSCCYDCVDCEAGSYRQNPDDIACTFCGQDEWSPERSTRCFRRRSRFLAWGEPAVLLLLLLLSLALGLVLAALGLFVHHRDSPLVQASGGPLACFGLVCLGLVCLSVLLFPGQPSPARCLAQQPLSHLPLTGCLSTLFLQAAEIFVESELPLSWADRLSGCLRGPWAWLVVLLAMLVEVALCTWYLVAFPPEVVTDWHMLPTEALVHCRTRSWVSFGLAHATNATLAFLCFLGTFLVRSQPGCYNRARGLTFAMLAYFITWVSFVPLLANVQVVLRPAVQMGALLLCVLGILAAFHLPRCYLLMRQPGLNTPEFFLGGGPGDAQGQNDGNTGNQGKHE
T2 sequence (Q8TE23 20-839 partner): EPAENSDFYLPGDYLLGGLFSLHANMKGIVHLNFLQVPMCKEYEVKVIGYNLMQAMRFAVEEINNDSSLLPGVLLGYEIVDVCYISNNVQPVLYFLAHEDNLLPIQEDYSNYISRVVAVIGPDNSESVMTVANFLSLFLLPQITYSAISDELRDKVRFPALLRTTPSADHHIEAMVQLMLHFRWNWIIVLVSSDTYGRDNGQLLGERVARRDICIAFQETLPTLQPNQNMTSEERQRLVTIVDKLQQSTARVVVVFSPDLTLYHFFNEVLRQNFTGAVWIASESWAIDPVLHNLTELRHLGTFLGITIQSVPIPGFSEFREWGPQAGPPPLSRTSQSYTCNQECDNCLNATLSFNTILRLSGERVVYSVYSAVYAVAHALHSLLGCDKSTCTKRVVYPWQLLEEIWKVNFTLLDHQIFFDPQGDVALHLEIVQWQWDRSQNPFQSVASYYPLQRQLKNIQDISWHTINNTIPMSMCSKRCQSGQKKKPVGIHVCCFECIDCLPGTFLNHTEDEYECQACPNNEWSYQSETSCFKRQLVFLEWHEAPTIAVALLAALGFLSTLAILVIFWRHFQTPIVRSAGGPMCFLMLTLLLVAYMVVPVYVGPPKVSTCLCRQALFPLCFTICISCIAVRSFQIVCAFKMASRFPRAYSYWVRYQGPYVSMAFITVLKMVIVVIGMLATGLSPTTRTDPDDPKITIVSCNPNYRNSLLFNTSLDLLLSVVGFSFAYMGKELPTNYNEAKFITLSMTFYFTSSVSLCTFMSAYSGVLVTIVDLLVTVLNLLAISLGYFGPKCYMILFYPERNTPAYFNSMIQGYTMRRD
To be noted: cited from earlier work.

In series [3] the test system is PDE. The series can be described thus: PDE pharmacological block with theophylline in drinking water.
Setting [4] is: lines 7, 9, 7c expressing humanized receptor.

Results on five molecules are retold here after patent publication US20150045610A1, “METHOD OF MODIFYING SPERMATOGENESIS, SPERMIOGENESIS AND/OR FERTILITY IN MAMMALS” (Monell Chemical Senses Center, priority 2012, published 2015).

Consider `CC(Oc1ccc(Cl)cc1Cl)C(=O)O` (centres unmarked) [2,4-DP, 2-(2,4-dichlorophenoxyl) propionic acid], for which the “sweet preference of Line 7 mice” value in series [1] (0.2 mM 2,4-DP) is “blocked”. Moreover, the “sweet responses of the transgenic animals” value in series [1] (setting [4]) is recorded as “even more powerful inhibitor”.

In the case of `CC(C)(Oc1ccc(CCNC(=O)c2ccc(Cl)cc2)cc1)C(=O)O` [bezafibric acid], in series [2], the “T1R3 inhibition compared with PPAR-α activation” value is reported as “comparable to their activation of PPAR-α”.

With `OC[C@H]1O[C@H](O[C@]2(CCl)O[C@H](CCl)[C@@H](O)[C@@H]2O)[C@H](O)[C@@H](O)[C@H]1Cl` [sucralose], in series [1] (setting [4]), the “preference of transgenic animals for sweetener” value is recorded as “modest preference”.

For `OC[C@H]1O[C@@](CO)(O[C@H]2O[C@H](CO)[C@@H](O)[C@H](O)[C@H]2O)[C@@H](O)[C@@H]1O` [sucrose], the “preference of transgenic animals for sweetener” value in series [1] (setting [4]) is “strong preference”.

Take `Cn1c(=O)c2[nH]cnc2n(C)c1=O` [theophylline]: the testis pathology result in series [3] (T1R3-null animals, theophylline, compared with clofibrate-treated animals) was “similar, although milder, pathology”. In addition, the “pathology in testis after single block” value in series [3] (control genotypes, theophylline alone, preliminary) is on record as “no detectable pathology in testis”. In addition, the “adverse effect on health and behavior” value in series [3] (theophylline-treated animals) is reported as “no obvious adverse effect”.
